Entries after “also recorded” stand apart in the source; their conditions may differ.

The target in one test is T1, PPARα (Homo sapiens, UniProt Q07869).
T1 construct: expressed in transfected cells; host or cells: HEK293T
T1 sequence (Q07869 239-466 limits assumed): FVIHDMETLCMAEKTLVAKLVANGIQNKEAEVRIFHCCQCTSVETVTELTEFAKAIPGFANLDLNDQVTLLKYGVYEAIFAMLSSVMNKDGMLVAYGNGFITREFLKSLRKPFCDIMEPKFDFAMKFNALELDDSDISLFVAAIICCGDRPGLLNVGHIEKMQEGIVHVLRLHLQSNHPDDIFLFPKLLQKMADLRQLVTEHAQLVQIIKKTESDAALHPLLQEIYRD
Description: Gal4 hybrid reporter gene assay PPARα. In kind it is cell-based. From the text: These in vitro test systems are based on a constitutively expressed hybrid receptor composed of the ligand binding domain of the respective human nuclear receptor and the DNA binding domain of the yeast receptor Gal4. A Gal4-inducible firefly luciferase serves as reporter gene and a constitutively expressed renilla luciferase is used for normalization of transfection efficacy and internal toxicity control[18],[19]. […] The Gal4-fusion receptor plasmids pFA-CMV-hPPARα-LBD[50], pFA-CMV-hPPARγ-LBD[50], pFA-CMV-hPPARδ-LBD[50], pFA-CMV-hLXRα-LBD[51], pFA-CMV-hLXRβ-LBD[51], pFA-CMV-hRXRα-LBD[52], pFA-CMV-hRXRβ-LBD[52], pFA-CMV-hRXRγ-LBD[52], pFA-CMV-hRARα-LBD[52], pFA-CMV-hRARβ-LBD[52], pFA-CMV-hRARγ-LBD[52], pFA-CMV-hFXR-LBD[53], pFA-CMV-hVDR-LBD[52], pFA-CMV-hCAR-LBD[52] and pFA-CMV-hPXR-LBD[52] coding for the hinge region and ligand binding domain (LBD) of the canonical isoform of the respective nuclear receptor have been reported previously. pFR-Luc (Stratagene) was used as reporter plasmid and pRL-SV40 (Promega) for normalization of transfection efficiency and cell growth.
HEK293T cells were grown in DMEM high glucose, supplemented with 10% FCS, sodium pyruvate (1 mM), penicillin (100 U/mL) and streptomycin (100 μg/mL) at 37 °C and 5% CO2. The day before transfection, HEK293T cells were seeded in 96-well plates (3·10^4 cells/well). Before transfection, medium was changed to Opti-MEM without supplements. Transient transfection was carried out using Lipofectamine LTX reagent (Invitrogen) according to the manufacturer’s protocol with pFR-Luc (Stratagene), pRL-SV40 (Promega) and the corresponding Gal4-fusion nuclear receptor plasmid. 5 h after transfection, medium was changed to Opti-MEM supplemented with penicillin (100 U/mL), streptomycin (100 μg/mL), now additionally containing 0.1% DMSO and the respective test compound or 0.1% DMSO alone as untreated control. Each concentration was tested in duplicates and each experiment was repeated independently at least three times. Following overnight (12-14 h) incubation with the test compounds, cells were assayed for luciferase activity using Dual-Glo™ Luciferase Assay System (Promega) according to the manufacturer’s protocol. Luminescence was measured with an Infinite M200 luminometer (Tecan Deutschland GmbH). […] Fold activation was obtained by dividing the mean RLU of a test compound at a respective concentration by the mean RLU of untreated control.
A general note: Reporter assays use an easily measured gene product as a stand-in for the process of interest.

The target in another test is PPARγ LBD / SRC-1 (Homo sapiens, UniProt P37231). Description: PPARγ coactivator recruitment assay (time-resolved FRET), SRC-1. The class given is biochemical. From the text: We analyzed the ability of lesinurad to induce recruitment of the coactivators steroid receptor coactivator 1 (SRC-1, also known as nuclear receptor coactivator 1 (NCOA1)) and cyclic AMP responsive element binding (CREB) protein (CBP) to the PPARγ ligand binding domain in a time-resolved FRET assay with labeled PPARγ-LBD and coactivator proteins (Fig. 5D).
Chain of PPARγ LBD / SRC-1 (P37231 238-503 limits assumed): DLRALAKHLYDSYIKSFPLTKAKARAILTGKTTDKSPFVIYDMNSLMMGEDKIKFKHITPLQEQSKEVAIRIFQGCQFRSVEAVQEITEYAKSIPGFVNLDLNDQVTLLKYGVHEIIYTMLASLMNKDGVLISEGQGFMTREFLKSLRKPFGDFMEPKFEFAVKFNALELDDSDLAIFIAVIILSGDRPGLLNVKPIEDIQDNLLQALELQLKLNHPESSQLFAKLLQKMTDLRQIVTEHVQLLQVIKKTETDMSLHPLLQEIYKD
Chain of PPARγ LBD / SRC-1 (Q15788 676-700 partner limits assumed): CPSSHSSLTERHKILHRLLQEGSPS
Recruitment of coactivator-derived peptides to the PPARγ LBD was studied by homogeneous time-resolved fluorescence resonance energy transfer (HT-FRET or HTRF). Terbium cryptate as streptavidin conjugate (cisbio assays, France) was used as FRET donor. Peptides derived from coactivators SRC-1 [biotin-[…]] or CBP [biotin-[…]] encompassing the coactivator consensus motif LxxLL and N-terminal biotin for stable coupling to streptavidin were purchased (Eurogentec GmbH, Germany). […] FI520 nm was divided by FI620 nm and multiplied with 10,000 giving a dimensionless HTRF signal. Coactivator recruitment by the PPARγ LBD brings FRET donor and acceptor into close proximity resulting in a gain in FRET signal as signal for binding.

A short description of test [1]: Control reporter experiment in absence of a hybrid receptor. The class given is cell-based. The conditions noted are these: 30 μM, w/o hybrid receptor. The text has this: These in vitro test systems are based on a constitutively expressed hybrid receptor composed of the ligand binding domain of the respective human nuclear receptor and the DNA binding domain of the yeast receptor Gal4. A Gal4-inducible firefly luciferase serves as reporter gene and a constitutively expressed renilla luciferase is used for normalization of transfection efficacy and internal toxicity control[18],[19].

Another test concerns 3T3-L1 adipocytes. Description: Differentiation of 3T3-L1 adipocytes, Oil Red O staining. In kind it is cell-based, murine. The conditions noted are these: rosiglitazone 2 μM; lesinurad up to 50 μM. How it is done: For this, 3T3-L1 cells were treated with insulin, dexamethasone and isobutylmethylxanthine (IBMX) to induce their differentiation into mature adipocytes. […] 3T3-L1 cells were subcultured in DMEM containing 10% newborn calf serum in a humidified atmosphere at 37 °C, 5% CO2. Cells were differentiated into adipocytes within 14 days according to the method[54] reported by Zebisch and colleagues. In brief, cells were seeded in 6-well plates ([…]). […] At day 5, medium was changed to contain only insulin for another two days. Cells were then kept for lipid droplet accumulation in basal medium without additions until day 15. […] Differentiation of 3T3-L1 cells to adipocytes was confirmed by Oil Red O staining. For this, cells were washed with PBS and then fixed for 60 min with a formaldehyde solution (4% in PBS). Subsequently, cells were rinsed with 60% isopropanol and incubated with Oil Red O solution (0.3%) for 120 min.

As to `O=C(O)CSc1nnc(Br)n1-c1ccc(C2CC2)c2ccccc12` [lesinurad], the Gal4-PPARα transactivation result on PPARα (30 μM, compared with PPARγ) is “lower efficacy”. The EC50 (commonly the concentration that produces a half-maximal response) at PPARα (Gal4 hybrid reporter, HEK293T, 12-14 h, mean ± SEM, at least three experiments) turned out to be 20.8 ± 0.7 µM; at PPARγ LBD / SRC-1 (HTRF, PPARγ LBD, 2 h at RT) it was 12 ± 2 µM. The PPARα activation efficacy at PPARα (vs. 1 µM of PPARα agonist GW7647) worked out at 13.5 ± 0.5%. The SRC-1 recruitment efficacy at PPARγ LBD / SRC-1 (compared to 1 μM rosiglitazone) is 91 ± 5%. The “reporter transactivation in absence of a hybrid receptor” value in test [1] was “no reporter transactivation”. Moreover, in the test on 3T3-L1 adipocytes, the “lipid accumulation during differentiation (Oil Red O staining)” value is listed as “lacked this adipogenic effect; also recorded: does not induce fat accumulation”.

Values taken from paper PMC6131501, “Urate transporter inhibitor lesinurad is a selective peroxisome proliferator-activated receptor gamma modulator (sPPARγM) in vitro” (Scientific Reports, 2018).
